One data set addresses T1, human mGlu2 (Homo sapiens, UniProt Q14416).
T1 construct: expressed in transfected cells; host or cells: HEK293
Description: [3H]-compound A displacement binding, human mGlu2 HEK293 membranes. Here is the method:
(§1) For [^3H]-compound A (a NAM compound, selective for mGlu2/3 (˜20 fold selective for 2 over 3) vs other mGluRs) binding, membranes from human mGlu2 and mGlu3 HEK293 cells, and also rat cortical membranes, were used. After thawing, membranes were homogenized using an Ultra Turrax homogenizer and suspended in ice-cold binding buffer containing 50 mM Tris-HCl (pH 7.4), 10 mM MgCl2, 2 mM CaCl2. Displacement studies were done using 6 nM of radioligand, except for human mGlu3 membranes where 25 nM was used. Assay mixtures were incubated for 60 min at RT in a volume of 0.5 ml containing […] or 75 μg membrane protein of human mGlu2, human mGlu3 or rat cortex, respectively. Non-specific binding was estimated in the presence of […] compound B (a NAM with IC50˜10 nM against hmGlu2 and IC50˜200 nM against hmGlu3). Filtration was performed using Whatman GF/C filter sheets pre-soaked in 0.1% PEI and a Brandell harvester 96.
(§2) Filters from filters sheets were punched into vials. After the addition of scintillation liquid, radioactivity on the filters was counted in a Liquid Scintillation Analyzer from Perkin Elmer.
(§3) Radioligand competition binding data were calculated as percentage of total binding measured in the absence of test compound. […] Sigmoid inhibition curves were analyzed using non-linear regression analysis.

The next data set has as its system mGluR2/3. Description: microPET imaging in rhesus monkey, baseline and compound A pretreatment. It counts as in vivo, rhesus monkey (Macaca mulatta). The conditions noted are these: for BPnd: baseline, SRTM, pons reference. The source says:
Dynamic 120-min μPET scans with [^18F]-1 were acquired with a Focus 220 μPET scanner on a rhesus monkey (8 y-old female Macaca mulatta, 5.8 kg), that was sedated with ketamine (Ketalar®) and xylazine (Rompun®) via intramuscular (i.m.) injection. During scanning the monkey received repeatedly an additional dose of ketamine/xylazine via i.v. injection. O2 saturation in blood, breathing frequency and heartbeat frequency were monitored during the entire experiment. The head of the animal was placed central in the field of view of the μPET scanner. Scans were acquired in list mode and Fourier rebinned in 27 time frames (4×15 s, 4×60 s, 5×180 s, 8×300 s, 6×600 s). Data were reconstructed using a 3D maximum a posteriori (3D-MAP) iterative reconstruction. TACs of the whole brain were generated using VOIs with PMOD software. Radioactivity concentration in the brain is expressed as SUV as a function of time after tracer injection. In addition, non-displaceable binding potential (BPnd) was determined, using kinetic modeling based on the simplified reference tissue model (SRTM) with the pons as reference region (0-60 min). Scans were started immediately after i.v. injection of 185 MBq of [^18F]-1 via the vena saphena of the right leg. For the pre-treatment study, the cold authentic reference compound A was dissolved in a vehicle containing 20% (2-hydroxypropyl)-β-cyclodextrin and 2 equivalents HCl, filtered through a 0.22-μm membrane filter (Millex-GV, Millipore) prior to injection. Pre-treatment was done by i.v. injection of 2.5 mg/kg of cold authentic reference compound A, 30 min prior to injection of 185 MBq of [^18F]-1. μPET images were compared to a baseline scan, acquired in the non-treated monkey. Blood samples were collected during both baseline and pre-treatment scans at 10, 30 and 60 min p.i. via a catheter in the vena saphena of the left leg and plasma was analysed for radio metabolites according to the same procedure as for rats.

The next data set relates to mGlu2-3 rat cortex. Description: [3H]-compound A displacement binding, rat cortical membranes. As to the method: as §1, §2, §3
The next data set deals with T2, human mGlu3 (Homo sapiens, UniProt Q14832).
T2 construct: expressed in transfected cells; host or cells: HEK293
T2 sequence (Q14832 23-879): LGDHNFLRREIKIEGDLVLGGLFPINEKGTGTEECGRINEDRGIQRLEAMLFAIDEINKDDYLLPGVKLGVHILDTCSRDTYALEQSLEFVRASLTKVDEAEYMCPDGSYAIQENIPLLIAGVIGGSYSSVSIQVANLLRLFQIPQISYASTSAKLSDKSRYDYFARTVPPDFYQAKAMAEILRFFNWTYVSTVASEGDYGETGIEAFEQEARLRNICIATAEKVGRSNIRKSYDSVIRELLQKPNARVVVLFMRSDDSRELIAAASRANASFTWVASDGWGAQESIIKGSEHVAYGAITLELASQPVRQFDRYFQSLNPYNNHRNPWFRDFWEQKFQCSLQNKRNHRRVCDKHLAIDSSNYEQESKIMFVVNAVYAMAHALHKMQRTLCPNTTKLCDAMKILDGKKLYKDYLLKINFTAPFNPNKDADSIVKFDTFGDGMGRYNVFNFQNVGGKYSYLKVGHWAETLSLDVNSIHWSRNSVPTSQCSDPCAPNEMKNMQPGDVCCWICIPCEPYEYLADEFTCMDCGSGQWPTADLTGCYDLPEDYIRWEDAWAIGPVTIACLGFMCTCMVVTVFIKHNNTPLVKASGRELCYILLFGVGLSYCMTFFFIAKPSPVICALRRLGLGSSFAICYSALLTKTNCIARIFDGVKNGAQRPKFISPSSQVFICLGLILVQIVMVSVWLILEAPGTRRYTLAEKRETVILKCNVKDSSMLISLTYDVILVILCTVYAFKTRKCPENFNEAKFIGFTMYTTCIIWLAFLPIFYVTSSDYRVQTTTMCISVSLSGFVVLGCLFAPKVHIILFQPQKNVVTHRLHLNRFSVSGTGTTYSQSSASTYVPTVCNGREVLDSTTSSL
Description: [3H]-compound A displacement binding, human mGlu3 HEK293 membranes. Here is the method: as §1, §2, §3

T1 sequence (Q14416 19-872): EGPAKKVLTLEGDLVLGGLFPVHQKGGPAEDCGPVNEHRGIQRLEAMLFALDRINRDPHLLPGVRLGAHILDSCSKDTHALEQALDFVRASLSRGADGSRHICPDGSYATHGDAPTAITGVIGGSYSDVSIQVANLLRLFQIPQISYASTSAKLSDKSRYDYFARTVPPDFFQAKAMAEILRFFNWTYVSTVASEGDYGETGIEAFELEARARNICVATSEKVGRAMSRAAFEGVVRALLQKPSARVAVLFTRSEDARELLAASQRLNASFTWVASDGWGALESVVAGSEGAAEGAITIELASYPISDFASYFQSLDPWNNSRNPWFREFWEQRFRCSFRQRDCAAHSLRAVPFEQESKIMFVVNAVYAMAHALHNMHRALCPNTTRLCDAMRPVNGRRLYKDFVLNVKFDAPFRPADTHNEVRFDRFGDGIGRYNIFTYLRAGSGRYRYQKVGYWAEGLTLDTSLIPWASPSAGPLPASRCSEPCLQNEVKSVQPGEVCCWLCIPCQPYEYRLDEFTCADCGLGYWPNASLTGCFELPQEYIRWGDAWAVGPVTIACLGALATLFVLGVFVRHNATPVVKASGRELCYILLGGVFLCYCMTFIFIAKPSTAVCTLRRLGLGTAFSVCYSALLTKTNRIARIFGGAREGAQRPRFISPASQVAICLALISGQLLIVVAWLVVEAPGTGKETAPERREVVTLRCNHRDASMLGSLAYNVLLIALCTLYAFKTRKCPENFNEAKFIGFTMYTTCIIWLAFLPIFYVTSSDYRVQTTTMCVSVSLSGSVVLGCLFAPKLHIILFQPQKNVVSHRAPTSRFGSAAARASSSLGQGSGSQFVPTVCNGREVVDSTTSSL

The IC50 is the concentration at which inhibition is half-maximal. By pIC50 is commonly meant the IC50 on a negative log10 scale, so that one unit is a factor of ten. Turning to `C[C@H]1CN(c2ccc(C(F)(F)F)c(C[18F])c2)C(=O)c2c(NC(=O)c3cccnc3N)cnn21` [compound 1], the “Eff Curve” value stood at 85 at human mGlu2, 103 with mGlu2-3 rat cortex and 96 at human mGlu3. In addition, the IC50 on human mGlu2 (6 nM [3H]-compound A) was 2.88 nM; on human mGlu3 (25 nM [3H]-compound A), 5.01 nM. In addition, the BPnd result is “high” in the data set with mGluR2/3 (frontal and prefrontal cortices); “low” in the data set with mGluR2/3 (thalamus). Besides, the bone uptake entry in the data set on mGluR2/3 (microPET scans, rhesus monkey) is listed as “No bone uptake”. Moreover, in the data set on mGluR2/3 (whole brain, baseline scan), the “brain uptake SUV” value was ~3 SUV. For the same compound, the “time to peak uptake” value in the data set on mGluR2/3 (whole brain, baseline scan) is 3.5 min. Also, the negative-log IC50 (pIC50) on mGlu2-3 rat cortex (6 nM [3H]-compound A) is recorded as 8.7.
